Legend:
[1] = system: ASIC2a+3; experiment: Whole cell patch clamp of ASIC2a/3 channel complex heterologously expressed in CHO cells (Example 3); format: cell-based; conditions: 50 μM; CHO cells expressing ASIC2a+3; FIG. 10A
Experimental: Another example of an in vitro assessment method consists of using mammalian heterologous expression systems, which are known to the skilled in the art, and include a variety of mammalian cell lines such as COS, HEK, e.g., HEK293 and/or CHO, cells. Cell lines are transfected with gated ion channel(s) and used to perform electrophysiology as follows: All experiments are performed at room temperature (20-25° C.) in voltage clamp using conventional whole cell patch clamp methods (Neher, E., et al. (1978) Pfluegers Arch 375:219-228). The amplifier used is the EPC-9 (HEKA-electronics, Lambrect, Germany) run by a Macintosh G3 computer via an ITC-16 interface. Experimental conditions are set with the Pulse-software accompanying the amplifier. Data is low pass filtered and sampled directly to hard-disk at a rate of 3 times the cut-off frequency. […] The cells are held at a holding voltage of −60 mV and at the start of each experiment the current is continuously measured for 45 s to ensure a stable baseline. […] Current amplitudes are measured at the peak of the responses, and effect of the compounds is calculated as the amplitude at compound equilibrium divided by the amplitude of the current evoked by the pulse just before the compound is included. […] The trace represents the current evoked by the pH drop recorded using whole cell patch clamp electrophysiology.

[2] = system: acute paw inflammation caused by intraplantar injection of λ-carrageenan; experiment: Carrageenan model for pain (Example 8); format: in vivo; conditions: rat, 30 and 100 mg/kg SC, 4 h post-carrageenan
Experimental: Acute inflammatory hyperalgesia is induced in rats by unilateral injection of 150 μl of a 3% solution of λ-carrageenan into the plantar surface of the left hind paw 3-5 hours prior to testing. Thermal hyperalgesia, mechanical allodynia, mechanical hyperalgesia, weight bearing asymmetry and paw inflammation were determined. Rats are pretreated with test compounds either administered intravenously (IV), by subcutaneous injection (SC) or by oral gavage (PO).
Thermal nociceptive thresholds are determined according to the method described elsewhere (Hargreaves et al., 1988). Briefly, through the glass surface, a radiant heat source (8V, 50 W projector bulb) is focused onto the plantar surface of the hind paw. The rat's paw-withdrawal latency to this stimulus is recorded to the nearest 0.1 s. Each latency score is an average of three trials, which are separated by at least 5 min. In all rats, both the injured and uninjured hind paws are similarly tested, allowing direct comparisons between inflamed and non-inflamed paws. […]
Mechanical hyperalgesia is determined by measuring the difference of withdrawal thresholds in response to increasing pressure in the inflamed vs contralateral paw using the Randall-Sellito Paw pressure meter (IITC Life Science) (Randall L O and Sellito J J., 1957). Briefly, rats are held in a contention jacket suspended by a stand and allowed to acclimate for 10 min. Then the tips of the paw pressure applicator are positioned close to the middle of the plantar and the dorsal area of the paw, avoiding the saphenous nerve innervations and an increasing pressure is applied until the rat removes it. Measures are performed in triplicate for each paw by alternating each paw with an interval of at least 1 min to avoid sensitization. […]
Carrageenan induced paw oedema is measured with a plethysmometer (IITC Life Science). Briefly, a mark is made on the ankles of the rat and the ipsi and contralateral paw are submerged 3 times into water up to the mark in order to determine the paw volume by calculation of water displacement.

[3] = system: chemically-induced spontaneous pain evoked by intraplantar injection of formalin; experiment: Formalin test, model of acute tonic pain (Example 7); format: in vivo; conditions: rat, 1 min prior to formalin
Experimental: Male Sprague-Dawley rats are housed together in groups of three animals under standard conditions with unrestricted access to food and water. All experiments are conducted according to the ethical guidelines for investigations of experimental pain in conscious animals (Zimmerman, 1983).
Assessment of formalin-induced flinching behavior in normal, uninjured rats (body weight 200-300 g) is made after formalin (2.5% in saline, 50-100 μl, s.c.) is injected into the plantar surface of the hindpaw using a 27 G needle. Rats are pretreated with test compounds either administered intravenously (IV), by subcutaneous injection (SC) or by orally (PO).
Nociceptive behavior is determined manually every 5 min by measuring the amount of time spent in each of four behavioral categories: 0, treatment of the injected hindpaw is indistinguishable from that of the contralateral paw; 1, the injected paw has little or no weight placed on it; 2, the injected paw is elevated and is not in contact with any surface; 3, the injected paw is licked, bitten, or shaken. A weighted nociceptive score, ranging from 0 to 3 is calculated by multiplying the time spent in each category by the category weight, summing these products, and dividing by the total time for each 5 min block of time. (Coderre et al., Pain 1993; 54: 43). On the basis of the resulting response patterns, […] of nociceptive behavior are identified and scored: first phase (P1; 0-5 min), interphase (Int; 6-15 min), second phase (P2; […]), phase 2A (P2A; 16-40 min) and phase 2B (P2B; 41-60 min).
Statistical analysis is performed using the Prism™ 4.01 software package (GraphPad, San Diego, Calif., USA). The difference in response levels between treatment groups and control vehicle group is analyzed using an ANOVA followed by Bonferroni's method for post-hoc pair-wise comparisons. A p value <0.05 is considered to be significant.

| SMILES | pH evoked response (ASIC2a+3 current) [1] | mechanical hyperalgesia ([2]; 30 min prior to carrageenan) | size of the inflammation ([2]; 30 min prior to carrageenan) | thermal hyperalgesia ([2]; 30 min prior to carrageenan) | mechanical hyperalgesia ([2]; 1 min prior to carrageenan) | size of the inflammation ([2]; 1 min prior to carrageenan) | thermal hyperalgesia ([2]; 1 min prior to carrageenan) | pain intensity as evaluated by the licking behavior ([3]; SC, 2.5, 7.5, 25 and 75 mg/kg, FIG. 5A) | ED50 ([3]; SC, FIG. 5B, read-out: ED50 (number of licking and biting episodes in phase IIa of the formalin test)) [mg/kg] |
| --- | --- | --- | --- | --- | --- | --- | --- | --- | --- |
| Cc1ccc(-c2nc(Nc3ccc(C(=O)O)cc3)c3cc(Cl)ccc3n2)cc1 [Compound 124] | markedly reduced | dose-dependently reversed | reduced | dose-dependently reversed |  |  |  |  |  |
| Cc1cc(OC2CCN(Cc3ccccc3)CC2)c2cc(O)ccc2n1 [Compound 13, 4-(1-benzylpiperidin-4-yloxy)-2-methylquinolin-6-ol] |  |  |  |  | dose-dependently reversed | reduced | dose-dependently reversed | dose-dependent reduction | ~6 |

Reference: patent US20090023773A1, “COMPOSITIONS AND METHODS FOR MODULATING GATED ION CHANNELS” (PainCeptor Pharma Corporation, priority 2007, published 2009)
